Data set [1] is described as follows: international clinical trials, safety. The conditions noted are these: more than 500 patients exposed, dexanabinol CREMOPHOR EL:ethanol product. It counts as in vivo, human. From the text:
A Safety Committee appointed to monitor patient data to ensure patient safety analyzed patients' data after the enrollment and in all cases the safety committee found the drug safe.

Data set [2] is described as follows: oral bioavailability, hard gelatin capsules, minipig model. It counts as in vivo. As to conditions: plasma, 40 mg/kg. As for the experimental part: The percentage of oral bioavailability was calculated using the following equation: % F=[AUCoral/Doseoral]/[AUCIV/DoseIV] Non-human Pharmacokinetic Studies.
Dexanabinol of high enantiomeric purity (lot # AC9001HU) filled in hard gelatin capsules have shown good oral bioavailability. A pharmacokinetic study for oral bioavailability of dexanabinol in large animals using the minipig model (the best animal model for oral absorption of drugs) was carried out. The animals (n=3) after 8 hours of food deprivation were administered orally with hard gelatin capsules containing dexanabinol of high enantiomeric purity at a dose of 40 mg/kg. Dexanabinol plasma levels were determined using a validated GC-MS assay up to 48 hours following administration. […] Pharmacokinetic analysis was done using the non-compartmental model analysis (WinNonlin software). Linear trapezoidal rule was used to compute AUC and AUMC.

The nature of data set [3]: plasma and brain concentrations after bolus i.v. 4 mg/kg. It counts as in vivo, Sprague Dawley rats. As for the experimental part: The pharmacokinetics of dexanabinol of high enantiomeric purity formulated in CREMOPHOR EL®:ethanol as described in Example 4 were investigated in rats, rabbits, and monkeys following intravenous administration of single doses, and 14 and 28 days of repeated dosing. Human pharmacokinetics was studied during Phase I and Phase II clinical studies. Dexanabinol used in the pharmacokinetic studies was formulated as drug concentrates of 50 and 100 mg/ml and diluted with sterile 0.9% NaCl solution prior to intravenous (i.v.) administration to the desired final doses. Determination of dexanabinol concentrations in plasma and brain extracts was carried out using a validated Gas Chromatography-Mass Spectra (GC-MS) assay following solid phase extraction of the drug and derivatization. The limit of quantitation of the assay is 0.1 ng/ml.
Brain pharmacokinetic parameters in animal studies were estimated by non-compartmental methods similar to those used for plasma data with the addition of an estimate of the time of maximum concentration (Tmax) which was assumed to be zero for the plasma data. Cmax is the concentration corresponding to Tmax. AUCz and AUC∞ were calculated as described above. Kp, brain-to-plasma partition coefficient, was determined by means of the area method and using the equation: Kp=AUC∞ brain/AUC∞ plasma […]

Data set [4] can be described thus: toxicology studies, single and/or multiple i.v. doses. It counts as in vivo, rats, rabbits, and monkeys. Here is the method: In order to support the i.v. testing of dexanabinol of high enantiomeric purity in humans, a series of acute single-dose and sub-chronic multiple dose toxicology studies were conducted to establish the safety profile of the compound in rats, rabbits, and monkeys. The 2-week and 4-week multidose studies included complete clinical and morphological evaluations. In vitro/in vivo mutagenicity studies and special toxicological evaluations have also been carried out to evaluate the safety profile of dexanabinol. The toxicology studies employed doses that were multiples of the proposed clinical doses.

These results are taken from US20070060636A1, “High enantiomeric purity dexanabinol for pharmaceutical compositions” (priority 2002, published 2007).

In general, AUC refers to concentration integrated over time. Read a high AUC as high exposure. As a reminder, the Cmax is the highest concentration seen after dosing. A word on the MRT: it is the average time that molecules of a dose stay in the body. As a reminder, the half-life is the time in which the quantity being followed falls by half. A high value points to slow decline. By bioavailability is commonly meant the share of a dose that reaches the circulation, judged against a reference dose that is usually intravenous. As to `CCCCCCC(C)(C)c1cc(O)c2c(c1)OC(C)(C)[C@H]1CC=C(CO)C[C@H]21` [dexanabinol, 1,1-dimethylheptyl-(3S,4S)-7-hydroxy-Δ^6-tetrahydrocannabinol], the serious adverse reactions result in data set [1] is “no serious adverse reactions were reported”. In data set [2] (n=3), this molecule had an AUC of 4210 ng·h/mL, a Cmax of 271 ± 102 ng/mL, an MRT of 12.1 ± 1.15 h and a half-life of 7.47 ± 1.06 h. For the same molecule, the bioavailability in data set [2] (oral, n=3, read-out: % F (oral bioavailability compared to i.v. injection)) was about 12%. For the same molecule, the “time after injection at which brain concentrations equilibrated with plasma concentration” value in data set [3] (male and female averaged) is reported as “about 30 minutes”. For the same molecule, in data set [3] (plasma), the “differences between genders in some plasma pharmacokinetic parameters” value was 2-3 fold. For the same molecule, the tolerability result in data set [4] (CREMOPHOR EL:ethanol formulation, single and/or multiple i.v. doses in rats, rabbits and monkeys) is listed as “generally well tolerated”. Further, in data set [4] (at dose tested, any of the animal species tested), the psychomimetic side effect result is “no psychomimetic side effect”.
